Data on 18 compounds can be found in patent publication US12358921B2, “Antiviral heterocyclic compounds” (priority 2022, dated 2025).

Experiment [1] deals with hMPV A2 TN/94-49. Put plainly: HMPV antiviral assay Method 1 (LLC-MK2 cells, ATP-Lite). Particulars: hMPV A2 TN/94-49, LLC-MK2 cells. The class given is cell-based. The procedure, abridged:
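LLC-MK2 cells infected in suspension with hMPV A2 TN/94-49 at MOI 0.005, 5,000 cells/well, in serum-free OptiMEM with 2 μg/mL TPCK-trypsin (final) and CaCl2; compounds in duplicate, 10 points, 2 μM top, 2.5-fold dilutions. After 7 days at 37 °C, cell health by ATP-Lite luminescence; EC50 by four-parameter fit.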

For experiment [2], the system named is HUMAN RSV-A (“LONG” STRAIN). Kind of experiment: RSV-A assay (CPE, ATPlite) in Hep-2 cells. Type of experiment: cell-based. Particulars: human respiratory syncytial virus, 120 h, MOI 0.1, 5-day incubation. The procedure, abridged:
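Protection from RSV cytopathic effect read by ATP luminescence (ATPlite) after 5-day culture. Genotype A "Long" virus added at MOI 0.1 to Hep-2 monolayers at 8,000 cells/well, pre-dosed with duplicate 2-fold compound dilutions; controls include infected untreated and uninfected wells. EC50 values binned into ranges.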

Experiment [3] relates to hMPV A2 TN/94-49. Put plainly: HMPV antiviral assay Method 2 (LLC-MK2 cells with CP-100-356, ATP-Lite). Type of experiment: cell-based. Particulars: hMPV A2 TN/94-49, LLC-MK2 cells, 4 μM CP-100-356, Method 2. The procedure, abridged:
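The protective effect was measured after 7 days at 37 °C by ATP-Lite luminescence and expressed as % cell health relative to virus-only and cells-only wells, with EC50 from a four-parameter logistic. Cells were LLC-MK2 infected with strain A2 TN/94-49 (MOI 0.16) with final 2 μM CP-100-356 and 2 μg/mL TPCK-trypsin; 10 duplicate concentrations from 200 nM, 2.5-fold steps.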

Another experiment concerns HRSV. Particulars: prophylactic use, high risk infants; cited from earlier work.

Consider `COc1cc(C(=O)NC[C@@](O)(c2ccccc2)c2cc3c(c(-c4cc(F)c(F)cc4F)n2)OC[C@]3(C)C(N)=O)cc2cn(C(F)F)nc12` [Example 172], for which the EC50 is under 0.5 µM with hMPV A2 TN/94-49 [1], under 0.2 µM in experiment [2] and under 0.2 µM in the experiment with hMPV A2 TN/94-49 [3].
As for `COc1cc(C(=O)NC[C@@](O)(c2cccnc2)c2cc3c(c(-c4cc(Cl)c(F)cc4F)n2)OC[C@]3(C)C(N)=O)cc2cn(C3CC3)nc12` [Example 131], the concentration giving a half-maximal response (EC50) was under 0.5 µM in the experiment with hMPV A2 TN/94-49 [1], under 0.2 µM in experiment [2] and under 0.2 µM with hMPV A2 TN/94-49 [3].
As to `COc1cc(C(=O)NC[C@@](O)(c2ccccc2)c2cc3c(c(-c4cccc(Cl)c4Cl)n2)OC[C@]3(C)C(N)=O)cc2cn(C3CC3)nc12` [Example 260], the EC50 in the experiment with hMPV A2 TN/94-49 [1] was under 0.5 µM; in experiment [2], under 0.2 µM; in the experiment with hMPV A2 TN/94-49 [3], under 0.2 µM.
On to `C[C@]1(C(N)=O)COc2c1cc([C@@](O)(CNC(=O)c1cc(OC3CC3)c3nn(C4(F)CC4)cc3c1)C1CC1)nc2-c1cc(Cl)c(F)cc1F` [Example 5], for which the EC50 is under 0.5 µM in the experiment on hMPV A2 TN/94-49 [1], under 0.2 µM in experiment [2] and under 0.2 µM with hMPV A2 TN/94-49 [3].
Regarding Palivizumab, the “effective in reducing hospitalizations” value in the experiment with HRSV is reported as 60%.
For the compound `C[C@]1(C(N)=O)COc2c1cc([C@@](O)(CNC(=O)c1cc(OC3CC3)c3nn(C4(F)CC4)cc3c1)c1ccccc1)nc2-c1cccc(Cl)c1Cl` [Example 266], the half-maximal effective concentration (EC50) is under 0.5 µM in the experiment on hMPV A2 TN/94-49 [1], under 0.2 µM in experiment [2] and under 0.2 µM in the experiment on hMPV A2 TN/94-49 [3].
As for `COc1cc(C(=O)NC[C@@](O)(c2cccc(F)c2)c2cc3c(c(-c4cccc(Cl)c4Cl)n2)OC[C@]3(C)C(N)=O)cc2oc(C)nc12` [Example 293], the results for the EC50 (in the experiment on hMPV A2 TN/94-49 [1]; in experiment [2]; in the experiment on hMPV A2 TN/94-49 [3]) were under 0.5 µM, under 0.2 µM and under 0.2 µM, respectively.
With `C[C@]1(C(N)=O)COc2c1cc([C@@](O)(CNC(=O)c1cc(OC3CC3)c3nn(C4CC4)cc3c1)C1CC1)nc2-c1ccc(F)c(Cl)c1Cl` [Example 23], the values for the concentration giving a half-maximal response (EC50) (in the experiment with hMPV A2 TN/94-49 [1]; in experiment [2]; in the experiment with hMPV A2 TN/94-49 [3]) were under 0.5 µM, under 0.2 µM and under 0.2 µM, respectively.
On to `COc1cc(C(=O)NC[C@@](O)(c2ccccc2)c2cc3c(c(-c4cc(Cl)c(F)cc4F)n2)OC[C@]3(C)C(N)=O)cc2cn(C3(F)CC3)nc12` [Example 158], for which the concentration giving a half-maximal response (EC50) in the experiment on hMPV A2 TN/94-49 [1] is under 0.5 µM; in experiment [2], under 0.2 µM; in the experiment with hMPV A2 TN/94-49 [3] it was under 0.2 µM.
Turning to `Cc1cnc2c(OC3CC3)cc(C(=O)NC[C@@](O)(c3ccccc3)c3cc4c(c(-c5cc(Cl)c(F)cc5F)n3)OC[C@]4(C)C(N)=O)cc2c1` [Example 182], the EC50 in the experiment with hMPV A2 TN/94-49 [1] was under 0.5 µM; in experiment [2], under 0.2 µM; in the experiment on hMPV A2 TN/94-49 [3] it was under 0.2 µM.
As to `COc1cc(C(=O)NC[C@@](O)(c2ccccc2)c2cc3c(c(-c4ccc(F)c(Cl)c4Cl)n2)OC[C@]3(C)C(N)=O)cc2cc(Cl)cnc12` [Example 294], the EC50 is under 0.5 µM in the experiment on hMPV A2 TN/94-49 [1], under 0.2 µM in experiment [2] and under 0.2 µM in the experiment with hMPV A2 TN/94-49 [3].
With `COc1cc(C(=O)NC[C@@](O)(c2ccccc2)c2cc3c(c(-c4cc(F)c(F)cc4F)n2)OC[C@]3(C)C(N)=O)cc2cn(C3(F)CC3)nc12` [Example 170], the concentration for a half-maximal effect (EC50) in the experiment on hMPV A2 TN/94-49 [1] was under 0.5 µM; in experiment [2], under 0.2 µM; with hMPV A2 TN/94-49 [3] it was under 0.2 µM.
For the compound `COc1cc(C(=O)NC[C@@](O)(c2cccc(F)c2)c2cc3c(c(-c4cccc(Cl)c4Cl)n2)OC[C@]3(C)C(N)=O)cc2oc(C3CC3)nc12` [Example 292], the EC50 was under 0.5 µM in the experiment with hMPV A2 TN/94-49 [1], under 0.2 µM in experiment [2] and under 0.2 µM in the experiment with hMPV A2 TN/94-49 [3].
Regarding `Cc1nc2c(OC3CC3)cc(C(=O)NC[C@@](O)(c3ccccc3)c3cc4c(c(-c5ccc(F)c(Cl)c5Cl)n3)OC[C@]4(C)C(N)=O)cc2o1` [Example 271], the results for the half-maximal effective concentration (EC50) (in the experiment with hMPV A2 TN/94-49 [1]; in experiment [2]; in the experiment on hMPV A2 TN/94-49 [3]) were under 0.5 µM, under 0.2 µM and under 0.2 µM, respectively.
Regarding `COc1cc(C(=O)NC[C@](O)(c2cc3c(c(-c4ccc(F)c(Cl)c4Cl)n2)OC[C@]3(C)C(N)=O)C(F)(F)F)cc2cn(C(F)F)nc12` [Example 66], the EC50 in the experiment on hMPV A2 TN/94-49 [1] is under 0.5 µM; in experiment [2], under 0.2 µM; in the experiment on hMPV A2 TN/94-49 [3], under 0.2 µM.
`COc1cc(C(=O)NC[C@@](O)(c2cccc(F)c2)c2cc3c(c(-c4cccc(Cl)c4Cl)n2)OC[C@]3(C)C(N)=O)cc2cn(C3(F)CC3)nc12` [Example 291]: the EC50 was under 0.5 µM in the experiment with hMPV A2 TN/94-49 [1], under 0.2 µM in experiment [2] and under 0.2 µM with hMPV A2 TN/94-49 [3].
Consider `COc1cc(C(=O)NC[C@](O)(c2cc3c(c(-c4cc(F)c(F)cc4F)n2)OC[C@]3(C)C(N)=O)C2CC2)cc2cc(C)c(F)nc12` [Example 21], for which the concentration for a half-maximal effect (EC50) in the experiment with hMPV A2 TN/94-49 [1] was under 0.5 µM; in experiment [2] it was under 0.2 µM; in the experiment on hMPV A2 TN/94-49 [3], under 0.2 µM.
Take `C[C@]1(C(N)=O)COc2c1cc([C@@](O)(CNC(=O)c1cc(OC3CC3)c3nc(C4CC4)sc3c1)C1CC1)nc2-c1cc(Cl)c(F)cc1F` [Example 3]: the concentration giving a half-maximal response (EC50) in the experiment with hMPV A2 TN/94-49 [1] is under 0.5 µM; in experiment [2], under 0.2 µM; in the experiment on hMPV A2 TN/94-49 [3], under 0.2 µM.

By EC50 is commonly meant the concentration needed to bring the measured effect to its halfway point. High values mean a need for much substance, low ones an effect from little substance.
